The numbers were not newly measured in paper PMC7456637, “Pharmacokinetic characterization of fluorocoxib D, a cyclooxygenase-2-targeted optical imaging agent for detection of cancer” (Journal of Biomedical Optics, 2020), which cites them from elsewhere.

One may read the IC50 as the point on the concentration scale where inhibition reaches its midpoint.

One series concerns RAW264.7 macrophages. Also on record: method as in PMID 20430759. As to conditions: cited from earlier work.
For another series, the system named is COX2. As to conditions: cited from earlier work.
For series [1] the following is noted: administrated orally; cited from earlier work.
The next series concerns COX1. As to conditions: cited from earlier work.
For series [2] the following is noted: dog, in vivo, po, 2 mg/kg; cited from earlier work.

SMILES strings stand for the structures.

On to `COc1ccc2c(c1)c(CC(=O)O)c(C)n2C(=O)c1ccc(Cl)cc1` [Indomethacin, reference compound], for which the IC50 with RAW264.7 macrophages was 10 nM; in the series with COX2, […]; with COX1, […]. The Bioavailability in series [1] is listed as 100%.

With `CCc1ccc(Nc2c(F)c(F)cc(F)c2F)c(CC(=O)O)c1` [robenacoxib], the “Elimination t1/2” value in series [2] is on record as 1.1 h.
